Measured values: US20090004185A1, “AMINO-SUBSTITUTED QUINAZOLINE DERIVATIVES AS INHIBITORS OF BETA-CATENIN/TCF-4 PATHWAY AND CANCER TREATMENT AGENTS” (WYETH, priority 2007, published 2009)

Experiments:
SV40-Luc = SV40-Luc control luciferase reporter assay, SV 5A8 cell line (SV40-Luc and SV40-R-Luc), control for non-specific inhibitors; format: cell-based, human; conditions: Homo sapiens, SV5A8, 24 h, SV 5A8 cells derived from SW480; 24 hours of incubation with compound; ratio Firefly/Renilla luciferase
Description: Background cell line: SW480 colorectal carcinoma DNA constructs: […]
(§1) 2) SV40-Luc: SV40 binding site driving Firefly Luciferase in the pGL3 vector—as a control for non-specific inhibitors; and
(§2) 3) SV40-R-Luc: SV40 binding site driving Renilla Luciferase in the pGL3 vector—as an internal control for cell number and toxicity.
This screen uses 3 cell lines derived from SW480 and selected to contain the above luciferase reporters integrated into their chromosomes as follows:
SV 5A8—SV40-Luc and SV40-R-Luc
(§3) Cells: Tcf22C11 and SV5A8 were grown in the presence of 500 μg/ml G418 and Tcf 33.13 was grown in the presence of 500 μg/ml G418+125 μg/ml Zeocin to maintain the integrated reporters. The cells were trypsinized and plated at 1×10^4 cells/well in opaque 96 well plates.
(§4) Compounds: 20-24 hours after cell plating, compounds were added at titrated concentrations between 10 μg/ml and 10 μg/ml. The compounds were diluted as follows: The compounds were stored frozen in dimethyl sulfoxide (DMSO) at […]. Compounds were initially titrated in DMSO to make a 1000×DMSO stock solution. Compounds were then diluted 1:25 into media/DMSO (DMEM+10% FBS+9% DMSO). Using the Biomek Multimek, the diluted compounds were mixed well and immediately added to the plated cells in a 1:40 dilution. The final concentration of DMSO in the assay plates was 0.316% DMSO.
(§5) Assay Readout: The luciferase signal was detected using a luciferase detection kit from Promega. Until December 2003, Promega's Dual-Luciferase® Reporter (DLR™) Assay System was used to detect luciferase activity. Briefly, after 24 hours of incubation with compound, culture media was removed by aspiration and 20 ul of passive lysis buffer (Promega) per well was added. The plates were shaken for 15 min. Firefly substrate was then added and the resulting luminescence was immediately read on a CCD camera imaging device or a luminometer. After quantifying the firefly luminescence, the reaction was quenched, and the Renilla luciferase reaction was initiated simultaneously by adding Stop & Glo® Reagent to the same sample. Renilla luciferase was then quantified using the CCD camera or luminometer.
(§6) Promega's Dual-Glo™ Luciferase Assay System can be used for luciferase detection. It was similar to the DLR Assay, however, unlike the DLR which has to be read immediately due to decaying signal, the signal in the Dual-Glo™ Luciferase Assay was stable for up to 2 hours. Briefly, after 24 hours of incubation with compound, culture media was removed by aspiration and 75 ul of fresh medium was added. Add 75 ul of Dual-Glo Luciferase Reagent (Promega) to each well and mix by shaking for 10 minutes on a plate shaker. Then, measure the firefly luminescence on a CCD camera imaging device or a luminometer. After quantifying the firefly luminescence, add 75 ul of Dual-Glo Stop & Glo Reagent (Promega) to each well and mix for 10 minutes. Renilla luciferase was then quantified using the CCD camera or luminometer.
(§7) This assay was meant to confirm primary leads and determine IC50s. Compounds were tested at titrated dilutions. The raw data for this assay was reported in protocol 2463-B. Protocol 2463-C contains the IC50 calculations based on the raw data. The data calculations were done as follows:
(§8) The data was expressed as % of control for both Firefly and Renilla Luciferase. The ratio of FF/Renilla (F/R) was then calculated and averaged between duplicate plates. The data was then plotted using LSW Data Analysis in Microsoft Excel. IC50s were determined by plotting the data in the LSW Data Analysis program using model 33. The IC50s (nM) for all three cell lines were reported.

β-catenin/Tcf-4 = test: cells; format: cell-based; conditions: Homo sapiens, 24 hours of incubation with compound, ratio Firefly/Renilla luciferase
Description: Background cell line: SW480 colorectal carcinoma DNA constructs:
1) Tcf-4-Luc: Tcf-4 binding sites driving Firefly Luciferase in the pGL3 vector—to measure the activity of β-catenin/Tcf-4;
as §1, §2
This screen uses 3 cell lines derived from SW480 and selected to contain the above luciferase reporters integrated into their chromosomes as follows: […]
as §3
as §4, with “The” for “Compounds: 20-24 hours after cell plating, compounds were added at titrated concentrations between 10 μg/ml and 10 μg/ml. The”
as §5
as §6, with “It was similar to the DLR Assay, however, unlike the DLR which has to be read immediately due to decaying signal, the signal in the Dual-Glo™ Luciferase Assay was stable for up to 2 hours.” left out
as §7, §8

[1] = SW480, 24 h, Tcf 33.13 cells derived from SW480
[2] = Tcf22C11, 24 h, Tcf 22C11 cells derived from SW480

IC50 (SV40-Luc) [nM]	IC50 (β-catenin/Tcf-4; [1]) [nM]	IC50 (β-catenin/Tcf-4; [2]) [nM]	Compound
> 10400			CN(C)c1nc(NCc2ccc(NC(=O)c3ccc(F)cc3)cc2)c2ccc(CO)cc2n1 [Example 93, N-[4-({[2-(dimethylamino)-7-(hydroxymethyl)quinazolin-4-yl]amino}methyl)phenyl]-4-fluorobenzamide]
> 18500			CN(C)c1nc(NCc2ccc(NC(=O)c3ccc(F)cc3)cc2)c2ccc(I)cc2n1 [Example 86, N-[4-({[2-(dimethylamino)-7-iodoquinazolin-4-yl]amino}methyl)phenyl]-4-fluorobenzamide]
> 2740			Cc1ccc2c(NCc3ccc(NC(=O)c4ccc(F)cc4)cc3)nc(N3CCCC3)nc2c1 [Example 209, 4-fluoro-N-(4-{[(7-methyl-2-pyrrolidin-1-ylquinazolin-4-yl)amino]methyl}phenyl)benzamide]
> 752			CNc1nc(NCc2ccc(NC(=O)c3ccc(F)cc3)cc2)c2ccc(C)cc2n1 [Example 230, 4-fluoro-N-[4-({[7-methyl-2-(methylamino)quinazolin-4-yl]amino}methyl)phenyl]benzamide]
> 20900			C=Cc1ccc2c(NCc3ccc(NC(=O)c4ccc(F)cc4)cc3)nc(N(C)C)nc2c1 [Example 87, N-[4-({[2-(dimethylamino)-7-vinylquinazolin-4-yl]amino}methyl)phenyl]-4-fluorobenzamide]
> 602			CNc1nc(NCc2ccc(NC(=O)c3ccc(F)cc3)cc2)c2cc(C)ccc2n1 [Example 24, 4-fluoro-N-[4-({[6-methyl-2-(methylamino)quinazolin-4-yl]amino}methyl)phenyl]benzamide]
> 2660			Cc1ccc2c(NCc3ccc(NC(=O)c4ccc(F)cc4)cc3)nc(N3CCCCC3)nc2c1 [Example 206, 4-fluoro-N-(4-{[(7-methyl-2-piperidin-1-ylquinazolin-4-yl)amino]methyl}phenyl)benzamide]

More lines, now with the values behind:

Compound	IC50 (SV40-Luc) [nM]	IC50 (β-catenin/Tcf-4; [1]) [nM]	IC50 (β-catenin/Tcf-4; [2]) [nM]
CNc1nc(NCc2ccc(NC(=O)c3ccc(C#N)cc3)cc2)c2ccccc2n1 [Example 21, 4-cyano-N-[4-({[2-(methylamino)quinazolin-4-yl]amino}methyl)phenyl]benzamide]	> 12200		
CNc1nc(NCc2ccc(NC(=O)c3ccc(Cl)nc3)cc2)c2ccccc2n1 [Example 3, 6-chloro-N-[4-({[2-(methylamino)quinazolin-4-yl]amino}methyl)phenyl]nicotinamide]	> 2980		
Cc1ccc2c(NCc3ccc(NC(=O)c4ccc(F)cc4)cc3)nc(N3CCNC(C)(C)C3)nc2c1 [Example 236, N-[4-({[2-(3,3-dimethylpiperazin-1-yl)-7-methylquinazolin-4-yl]amino}methyl)phenyl]-4-fluorobenzamide]	> 5010		
CNc1nc(NCc2ccc(NC(=O)c3ccc(Cl)cc3)cc2)c2cccc(C)c2n1 [Example 191, 4-chloro-N-[4-({[8-methyl-2-(methylamino)quinazolin-4-yl]amino}methyl)phenyl]benzamide]	> 1450		
CNc1nc(NCc2ccc(NC(=O)c3ccc(Cl)cc3)cc2)c2c(C)cccc2n1 [Example 193, 4-chloro-N-[4-({[5-methyl-2-(methylamino)quinazolin-4-yl]amino}methyl)phenyl]benzamide]	> 2890		
CNc1nc(NCc2ccc(NC(=O)c3ccc(Cl)nc3)cc2)c2cccc(C)c2n1 [Example 183, 6-chloro-N-[4-({[8-methyl-2-(methylamino)quinazolin-4-yl]amino}methyl)phenyl]nicotinamide]	> 2890		
CNc1nc(NCc2ccc(NC(=O)COCc3ccccc3)cc2)c2ccccc2n1 [Example 2, 2-(benzyloxy)-N-[4-({[2-(methylamino)quinazolin-4-yl]amino}methyl)phenyl]acetamide]		> 2920	> 2920
CNc1nc(NCc2ccc(NC(=O)c3cc(F)ccc3C)cc2)c2ccccc2n1 [Example 1, 5-fluoro-2-methyl-N-[4-({[2-(methylamino)quinazolin-4-yl]amino}methyl)phenyl]benzamide]		> 6020	> 6020
